According to ChEMBL document CHEMBL3399966, “Isosteric replacements of the carboxylic acid of drug candidate VX-787: Effect of charge on antiviral potency and kinase activity of azaindole-based influenza PB2 inhibitors” (Bioorg Med Chem Lett, 2015):

Experiments:
[1] = biological target: Tyrosine-protein kinase JAK2 (Homo sapiens, UniProt O60674); experiment: Inhibition of JAK2 (unknown origin)
[2] = biological target: Phosphatidylinositol 4,5-bisphosphate 3-kinase catalytic subunit beta isoform (Homo sapiens, UniProt P42338); experiment: Inhibition of PI3Kbeta (unknown origin)
[3] = biological target: Hepatocyte growth factor receptor (Homo sapiens, UniProt P08581); experiment: Inhibition of MET (unknown origin)
[4] = biological target: Glycogen synthase kinase-3 (Homo sapiens, UniProt P49840+P49841); experiment: Inhibition of GSK3 (unknown origin); type: protein assay
[5] = biological target: Vascular endothelial growth factor receptor 2 (Homo sapiens, UniProt P35968); experiment: Inhibition of KDR (unknown origin)
[6] = biological target: T1, Receptor-type tyrosine-protein kinase FLT3 (Homo sapiens, UniProt P36888); experiment: Inhibition of FLT3 (unknown origin)
T1 sequence (P36888 whole entry): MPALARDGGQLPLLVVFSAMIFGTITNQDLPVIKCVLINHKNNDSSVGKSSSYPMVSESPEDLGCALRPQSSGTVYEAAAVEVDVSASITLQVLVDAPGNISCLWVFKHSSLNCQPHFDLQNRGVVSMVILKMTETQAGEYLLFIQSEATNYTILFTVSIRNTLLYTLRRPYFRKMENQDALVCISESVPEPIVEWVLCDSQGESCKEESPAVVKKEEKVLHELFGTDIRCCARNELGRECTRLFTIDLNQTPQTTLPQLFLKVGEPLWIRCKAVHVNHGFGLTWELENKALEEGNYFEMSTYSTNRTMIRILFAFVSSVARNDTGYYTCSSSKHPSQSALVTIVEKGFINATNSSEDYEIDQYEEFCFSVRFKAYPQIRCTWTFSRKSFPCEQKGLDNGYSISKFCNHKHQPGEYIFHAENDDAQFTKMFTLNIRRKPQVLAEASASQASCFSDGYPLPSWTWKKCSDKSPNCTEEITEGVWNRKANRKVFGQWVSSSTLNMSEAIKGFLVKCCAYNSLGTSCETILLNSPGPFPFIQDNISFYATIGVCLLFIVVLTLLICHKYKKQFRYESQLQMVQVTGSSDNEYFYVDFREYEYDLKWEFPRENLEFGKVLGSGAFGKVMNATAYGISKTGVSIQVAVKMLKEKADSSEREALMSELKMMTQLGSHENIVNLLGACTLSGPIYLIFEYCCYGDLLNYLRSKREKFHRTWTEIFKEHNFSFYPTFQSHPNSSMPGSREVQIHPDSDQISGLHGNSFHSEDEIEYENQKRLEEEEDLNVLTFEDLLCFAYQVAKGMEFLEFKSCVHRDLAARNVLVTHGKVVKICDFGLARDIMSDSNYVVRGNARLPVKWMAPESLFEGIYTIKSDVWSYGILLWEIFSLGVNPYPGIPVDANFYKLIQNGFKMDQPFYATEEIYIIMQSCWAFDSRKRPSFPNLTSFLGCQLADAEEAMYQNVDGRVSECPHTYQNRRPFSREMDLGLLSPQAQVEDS

[7] = biological target: Cyclin-dependent kinase 2 (Homo sapiens, UniProt P24941); experiment: Inhibition of CDK2 (unknown origin)
[8] = biological target: Tyrosine-protein kinase SYK (Homo sapiens, UniProt P43405); experiment: Inhibition of SYK (unknown origin)
[9] = biological target: Mitogen-activated protein kinase 10 (Homo sapiens, UniProt P53779); experiment: Inhibition of JNK3 (unknown origin)
[10] = biological target: T2, Interleukin-1 receptor-associated kinase 4 (Homo sapiens, UniProt Q9NWZ3); experiment: Inhibition of IRAK4 (unknown origin)
T2 sequence (Q9NWZ3 whole entry): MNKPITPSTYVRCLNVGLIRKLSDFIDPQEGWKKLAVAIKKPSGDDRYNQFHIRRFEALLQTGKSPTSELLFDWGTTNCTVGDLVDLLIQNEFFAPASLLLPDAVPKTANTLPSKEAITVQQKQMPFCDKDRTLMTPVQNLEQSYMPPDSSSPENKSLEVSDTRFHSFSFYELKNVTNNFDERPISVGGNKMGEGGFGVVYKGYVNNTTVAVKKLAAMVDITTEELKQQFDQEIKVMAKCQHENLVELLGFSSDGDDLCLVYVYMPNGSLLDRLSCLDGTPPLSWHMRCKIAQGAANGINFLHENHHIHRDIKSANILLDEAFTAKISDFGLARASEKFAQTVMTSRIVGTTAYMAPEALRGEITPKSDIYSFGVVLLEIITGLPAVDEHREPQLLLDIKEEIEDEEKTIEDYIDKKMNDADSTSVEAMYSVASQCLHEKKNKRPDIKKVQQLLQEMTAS

[11] = biological target: Phosphatidylinositol 4,5-bisphosphate 3-kinase catalytic subunit gamma isoform (Homo sapiens, UniProt P48736); experiment: Inhibition of PI3Kgamma (unknown origin)
[12] = biological target: Proto-oncogene tyrosine-protein kinase Src (Homo sapiens, UniProt P12931); experiment: Inhibition of SRC (unknown origin)
[13] = biological target: Serine/threonine-protein kinase PLK1 (Homo sapiens, UniProt P53350); experiment: Inhibition of PLK (unknown origin)
[14] = biological target: Rho-associated protein kinase (Homo sapiens, UniProt O75116+Q13464); experiment: Inhibition of ROCK (unknown origin); type: protein-complex assay
[15] = tested on: Influenza A virus; experiment: Antiviral activity against Influenza A virus A/PR/8/34 strain incubated with MDCK cells assessed as cell protection after 72 hrs by phenotypic cell protection assay; type: functional, organism-based; settings: A/Puerto Rico/8/1934(H1N1)
[16] = biological target: Phosphatidylinositol 4,5-bisphosphate 3-kinase catalytic subunit alpha isoform (Homo sapiens, UniProt P42336); experiment: Inhibition of PI3Kalpha (unknown origin)
[17] = biological target: T3, Phosphatidylinositol 4,5-bisphosphate 3-kinase catalytic subunit delta isoform (Homo sapiens, UniProt O00329); experiment: Inhibition of PI3Kdelta (unknown origin)
T3 sequence (O00329 whole entry): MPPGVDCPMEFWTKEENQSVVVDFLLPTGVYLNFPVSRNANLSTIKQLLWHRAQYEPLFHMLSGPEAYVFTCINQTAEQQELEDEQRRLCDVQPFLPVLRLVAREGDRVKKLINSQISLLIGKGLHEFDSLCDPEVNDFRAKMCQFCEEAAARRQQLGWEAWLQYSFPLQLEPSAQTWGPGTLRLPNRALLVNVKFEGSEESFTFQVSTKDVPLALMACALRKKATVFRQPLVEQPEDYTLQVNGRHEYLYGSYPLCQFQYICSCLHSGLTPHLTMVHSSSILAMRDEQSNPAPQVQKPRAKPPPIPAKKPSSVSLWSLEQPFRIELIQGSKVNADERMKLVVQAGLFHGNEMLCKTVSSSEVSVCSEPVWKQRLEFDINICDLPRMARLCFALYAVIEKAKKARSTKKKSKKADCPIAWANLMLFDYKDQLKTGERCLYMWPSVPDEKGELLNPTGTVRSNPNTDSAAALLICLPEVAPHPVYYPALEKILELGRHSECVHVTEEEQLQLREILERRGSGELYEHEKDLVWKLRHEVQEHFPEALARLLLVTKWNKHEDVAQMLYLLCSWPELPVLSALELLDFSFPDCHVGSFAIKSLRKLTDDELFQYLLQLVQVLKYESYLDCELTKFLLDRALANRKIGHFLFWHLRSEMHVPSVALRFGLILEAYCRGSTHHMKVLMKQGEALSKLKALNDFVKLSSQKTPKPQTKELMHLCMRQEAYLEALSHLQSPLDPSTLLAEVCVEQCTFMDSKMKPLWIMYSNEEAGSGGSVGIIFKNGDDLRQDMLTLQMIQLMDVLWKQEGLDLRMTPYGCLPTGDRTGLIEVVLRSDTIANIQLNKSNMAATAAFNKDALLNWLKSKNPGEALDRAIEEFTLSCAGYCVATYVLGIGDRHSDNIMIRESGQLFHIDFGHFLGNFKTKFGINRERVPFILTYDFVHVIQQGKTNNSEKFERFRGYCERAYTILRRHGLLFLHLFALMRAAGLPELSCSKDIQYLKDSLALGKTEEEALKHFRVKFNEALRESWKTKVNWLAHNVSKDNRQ

[18] = tested on: Influenza A virus; experiment: Antiviral activity against influenza A virus A/PR/8/34 strain incubated with MDCK cells assessed as reduction of viral RNA level equal to 1% of control level after 72 hrs by branched DNA assay; type: functional, organism-based; settings: A/Puerto Rico/8/1934(H1N1)
[19] = biological target: cAMP-dependent protein kinase catalytic subunit alpha (Homo sapiens, UniProt P17612); experiment: Inhibition of PKAa (unknown origin)

Vascular endothelial growth factor receptor 2, sequence (P35968 whole entry): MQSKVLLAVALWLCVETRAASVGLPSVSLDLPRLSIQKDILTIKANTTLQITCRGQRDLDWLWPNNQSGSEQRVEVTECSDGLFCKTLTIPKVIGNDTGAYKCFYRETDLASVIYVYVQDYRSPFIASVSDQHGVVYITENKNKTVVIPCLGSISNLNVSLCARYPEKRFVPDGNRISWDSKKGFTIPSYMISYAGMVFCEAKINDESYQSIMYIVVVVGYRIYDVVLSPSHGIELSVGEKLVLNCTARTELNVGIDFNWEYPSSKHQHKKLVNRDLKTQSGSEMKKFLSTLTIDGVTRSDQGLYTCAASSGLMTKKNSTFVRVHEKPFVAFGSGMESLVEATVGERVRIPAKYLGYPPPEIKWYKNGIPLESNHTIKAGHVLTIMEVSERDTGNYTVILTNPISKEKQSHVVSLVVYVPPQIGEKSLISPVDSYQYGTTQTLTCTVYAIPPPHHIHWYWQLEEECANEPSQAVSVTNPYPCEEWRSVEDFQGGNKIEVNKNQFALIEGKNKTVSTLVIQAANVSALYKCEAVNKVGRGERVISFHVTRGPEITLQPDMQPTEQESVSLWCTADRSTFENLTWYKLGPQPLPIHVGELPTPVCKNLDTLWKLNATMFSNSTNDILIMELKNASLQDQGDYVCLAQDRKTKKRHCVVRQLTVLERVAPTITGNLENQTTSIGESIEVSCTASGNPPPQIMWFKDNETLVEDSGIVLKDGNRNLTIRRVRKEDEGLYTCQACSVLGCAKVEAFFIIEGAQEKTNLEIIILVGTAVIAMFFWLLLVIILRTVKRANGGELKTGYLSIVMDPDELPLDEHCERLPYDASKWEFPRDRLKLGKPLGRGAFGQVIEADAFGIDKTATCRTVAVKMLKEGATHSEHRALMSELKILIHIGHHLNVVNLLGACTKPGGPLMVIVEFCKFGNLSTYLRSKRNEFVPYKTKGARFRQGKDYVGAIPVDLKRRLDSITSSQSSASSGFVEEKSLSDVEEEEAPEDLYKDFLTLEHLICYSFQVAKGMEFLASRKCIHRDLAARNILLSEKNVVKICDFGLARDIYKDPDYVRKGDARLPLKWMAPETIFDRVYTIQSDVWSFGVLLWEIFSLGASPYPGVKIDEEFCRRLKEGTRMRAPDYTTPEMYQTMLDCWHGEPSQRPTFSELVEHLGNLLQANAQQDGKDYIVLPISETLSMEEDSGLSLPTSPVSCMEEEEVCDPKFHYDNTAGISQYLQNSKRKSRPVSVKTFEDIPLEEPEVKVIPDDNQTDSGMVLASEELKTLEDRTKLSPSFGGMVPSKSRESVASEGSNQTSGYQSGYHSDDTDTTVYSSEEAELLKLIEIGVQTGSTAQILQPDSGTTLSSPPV
Tyrosine-protein kinase JAK2, sequence (O60674 whole entry, canonical isoform): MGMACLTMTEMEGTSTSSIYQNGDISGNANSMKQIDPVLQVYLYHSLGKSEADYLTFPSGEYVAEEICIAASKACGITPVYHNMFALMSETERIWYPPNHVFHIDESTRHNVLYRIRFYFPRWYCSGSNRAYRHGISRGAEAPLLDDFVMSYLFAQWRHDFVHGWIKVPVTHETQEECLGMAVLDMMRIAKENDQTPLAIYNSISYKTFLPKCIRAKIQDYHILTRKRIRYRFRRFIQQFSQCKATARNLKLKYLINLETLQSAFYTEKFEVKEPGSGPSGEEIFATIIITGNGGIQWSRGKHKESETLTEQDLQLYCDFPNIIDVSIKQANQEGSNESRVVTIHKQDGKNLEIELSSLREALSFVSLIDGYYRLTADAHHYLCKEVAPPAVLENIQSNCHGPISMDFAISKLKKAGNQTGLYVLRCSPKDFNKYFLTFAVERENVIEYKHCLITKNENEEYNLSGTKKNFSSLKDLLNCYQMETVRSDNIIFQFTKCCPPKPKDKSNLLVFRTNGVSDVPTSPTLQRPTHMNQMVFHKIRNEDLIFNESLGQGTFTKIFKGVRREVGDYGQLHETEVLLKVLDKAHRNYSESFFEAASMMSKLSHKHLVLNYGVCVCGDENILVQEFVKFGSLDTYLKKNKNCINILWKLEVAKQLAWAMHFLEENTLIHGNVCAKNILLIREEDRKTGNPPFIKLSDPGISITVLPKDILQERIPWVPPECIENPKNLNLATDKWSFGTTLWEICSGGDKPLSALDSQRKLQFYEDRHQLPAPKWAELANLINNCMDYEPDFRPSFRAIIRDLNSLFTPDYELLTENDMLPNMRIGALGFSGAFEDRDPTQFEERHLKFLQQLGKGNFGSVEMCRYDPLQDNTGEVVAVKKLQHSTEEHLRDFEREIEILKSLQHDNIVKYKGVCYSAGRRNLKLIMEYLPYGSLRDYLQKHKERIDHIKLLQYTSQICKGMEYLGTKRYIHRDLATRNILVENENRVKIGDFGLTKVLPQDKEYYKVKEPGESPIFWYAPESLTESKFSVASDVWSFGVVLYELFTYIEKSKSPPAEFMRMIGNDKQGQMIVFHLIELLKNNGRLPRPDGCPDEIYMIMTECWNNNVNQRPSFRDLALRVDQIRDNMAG
Proto-oncogene tyrosine-protein kinase Src, sequence (P12931 2-536 limits assumed): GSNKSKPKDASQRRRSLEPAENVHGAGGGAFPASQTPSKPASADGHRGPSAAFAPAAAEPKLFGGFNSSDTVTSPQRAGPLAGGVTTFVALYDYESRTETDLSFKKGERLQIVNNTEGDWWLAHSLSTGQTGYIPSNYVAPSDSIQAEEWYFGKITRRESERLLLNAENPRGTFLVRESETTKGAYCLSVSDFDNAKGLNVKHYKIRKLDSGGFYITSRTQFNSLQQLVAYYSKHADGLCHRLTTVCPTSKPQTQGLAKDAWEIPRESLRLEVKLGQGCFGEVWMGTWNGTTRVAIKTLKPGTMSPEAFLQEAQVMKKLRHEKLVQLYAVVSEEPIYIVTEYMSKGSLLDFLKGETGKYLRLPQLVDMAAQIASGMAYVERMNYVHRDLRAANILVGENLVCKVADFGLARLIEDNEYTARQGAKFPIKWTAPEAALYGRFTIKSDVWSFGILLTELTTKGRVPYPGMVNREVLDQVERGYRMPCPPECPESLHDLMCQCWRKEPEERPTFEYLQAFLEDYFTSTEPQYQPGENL
Serine/threonine-protein kinase PLK1, sequence (P53350 whole entry): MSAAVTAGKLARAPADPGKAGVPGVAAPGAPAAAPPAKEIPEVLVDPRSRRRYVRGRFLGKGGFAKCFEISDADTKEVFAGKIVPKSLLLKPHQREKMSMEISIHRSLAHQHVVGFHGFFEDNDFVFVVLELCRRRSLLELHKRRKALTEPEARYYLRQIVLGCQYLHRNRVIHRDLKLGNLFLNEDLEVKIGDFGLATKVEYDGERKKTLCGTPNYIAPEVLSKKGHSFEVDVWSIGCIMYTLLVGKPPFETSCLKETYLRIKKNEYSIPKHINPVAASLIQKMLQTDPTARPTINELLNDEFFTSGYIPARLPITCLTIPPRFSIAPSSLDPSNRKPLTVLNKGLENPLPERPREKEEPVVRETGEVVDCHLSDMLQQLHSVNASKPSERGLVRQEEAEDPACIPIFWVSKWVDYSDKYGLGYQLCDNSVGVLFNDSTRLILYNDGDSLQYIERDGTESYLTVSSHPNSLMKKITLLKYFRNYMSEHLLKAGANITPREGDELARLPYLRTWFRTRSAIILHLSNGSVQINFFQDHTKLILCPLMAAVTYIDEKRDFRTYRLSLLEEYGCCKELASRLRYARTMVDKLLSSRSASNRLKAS
Mitogen-activated protein kinase 10, sequence (P53779 whole entry): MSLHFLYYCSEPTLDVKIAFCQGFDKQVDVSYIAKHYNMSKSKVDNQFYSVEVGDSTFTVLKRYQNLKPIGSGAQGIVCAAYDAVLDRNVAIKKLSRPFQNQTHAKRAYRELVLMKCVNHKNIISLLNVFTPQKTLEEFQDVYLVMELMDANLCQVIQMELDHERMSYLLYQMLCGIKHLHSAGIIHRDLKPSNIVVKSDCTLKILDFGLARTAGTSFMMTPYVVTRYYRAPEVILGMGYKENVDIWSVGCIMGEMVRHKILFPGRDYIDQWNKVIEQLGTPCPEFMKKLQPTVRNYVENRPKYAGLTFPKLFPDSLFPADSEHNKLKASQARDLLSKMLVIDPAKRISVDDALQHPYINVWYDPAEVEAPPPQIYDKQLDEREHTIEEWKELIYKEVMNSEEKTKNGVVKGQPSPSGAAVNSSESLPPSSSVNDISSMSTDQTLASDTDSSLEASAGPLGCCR

Structure (SMILES)	Ki [1] [µM]	Ki [2] [µM]	Ki [3] [µM]	Ki [4] [µM]	Ki [5] [µM]	Ki [6] [µM]	Ki [7] [µM]	Ki [8] [µM]	Ki [9] [µM]	Ki [10] [µM]	Ki [11] [µM]	Ki [12] [µM]	Ki [13] [µM]	Ki [14] [µM]	IC50 [15] [µM]	Ki [16] [µM]	Ki [17] [µM]	EC50 [18] [µM]	EC99 [18] [µM]	Ki [19] [µM]
Fc1cnc2[nH]cc(-c3ncc(F)c(N[C@H]4C5CCC(CC5)[C@@H]4c4nnn[nH]4)n3)c2c1 (mixture of isomers)	> 4	> 4	> 4	> 4	> 4	> 4	> 4	> 4	> 4	> 4	2.9	> 4	> 4	> 4	0.025	1.8	> 4	0.038	0.18	> 4
O=P(O)(O)[C@H]1C2CCC(CC2)[C@@H]1Nc1nc(-c2c[nH]c3ncc(F)cc23)ncc1F (mixture of isomers)	> 4	> 4	> 4	> 4	> 4	1.1	> 4	> 4	> 4	> 4	> 4	> 4	> 4	> 4	0.091	> 4	> 4	0.051	0.29	> 4
O=P(O)(O)CC[C@H]1C2CCC(CC2)[C@@H]1Nc1nc(-c2c[nH]c3ncc(F)cc23)ncc1F (mixture of isomers)	0.62	> 4	> 4	0.12	> 4	> 4	> 4	> 4	> 4	> 4	0.4	> 4	0.32	0.25	0.2	0.85	3.1	0.33	2.1	> 4
Oc1cc([C@H]2C3CCC(CC3)[C@@H]2Nc2nc(-c3c[nH]c4ncc(F)cc34)ncc2F)no1 (mixture of isomers)	0.2	> 4	> 4	0.06	> 4	0.8	> 4	> 4	> 4	> 4	0.75	> 4	1	> 4	0.072	0.88	> 4	0.011	0.062	0.59
CC(=O)NS(=O)(=O)[C@H]1C2CCC(CC2)[C@@H]1Nc1nc(-c2c[nH]c3ncc(F)cc23)ncc1F (mixture of isomers)	> 4	> 4	> 4	0.31	> 4	2.8	> 4	> 4	> 4	> 4	1.5	> 4	> 4	> 4	0.019	> 4	> 4	0.009	0.16	> 4
Oc1cc([C@H]2C3CCC(CC3)[C@@H]2Nc2nc(-c3c[nH]c4ncc(F)cc34)ncc2F)on1 (mixture of isomers)	> 4	> 4	> 4	1.6	> 4	> 4	> 4	> 4	> 4	> 4	0.69	> 4	> 4	> 4	0.001	1.3	> 4	0.002	0.033	> 4
O=c1nc([C@H]2C3CCC(CC3)[C@@H]2Nc2nc(-c3c[nH]c4ncc(F)cc34)ncc2F)[nH]o1 (mixture of isomers)	> 4	> 4	> 4	> 4	> 4	> 4	> 4	> 4	> 4	> 4	> 4	> 4	> 4	> 4	–	> 4	> 4	0.029	0.14	> 4
O=C(O)[C@H]1C2CCC(CC2)[C@@H]1Nc1nc(-c2c[nH]c3ncc(F)cc23)ncc1F [PIMODIVIR]	> 4	–	–	1.6	–	> 4	–	–	–	–	–	–	–	–	0.002	–	–	0.002	0.011	–
